Assay results from patent US11649195B2, “Smart release nitrogen-containing fertilizer granules” (RYNAN TECHNOLOGIES PTE. LTD., priority 2018, dated 2023).

How the values were obtained:
[1] = of associated acids; cited from earlier work
Brassica integrifolia = test: Growing Brassica integrifolia in planting pots; type: in vivo; settings: day 31 after planting, 10 g fertilizer per pot
Protocol: Fertilizers comprising different functional layers were used for growing Brassica integrifolia. The experiments were done in plastic planting pots containing 5 Kg of a growth media comprising 50% coconut fibers and 50% topsoil. The N, P2O5 and K2O contents in 100 g of the growth media were 7.7 mg, 32 mg and 34 mg, respectively. Ten grams of urea were buried in the growth media at around 3 cm depth as a comparative example (Example 41). Alternatively, 10 grams of various smart N-fertilizers comprising different organic functional layer 104 were buried into the growth media at around 3 cm depth (Examples 42 and following). Then, ten seeds of Brassica integrifolia (also called English spinach) were placed in each planting pot. The planting pots were placed outdoor and wetted with 200 ml water every day.
Smart N-Fertilizers with different organic functional layer comprising tannic acid and its modifiers were used for growing Brassica integrifolia. These experiments were carried out as described above for Examples 42 to 48.
Smart N-Fertilizers with different organic functional layer were used for growing Brassica integrifolia. These experiments were carried out as described above for Examples 42 to 48, with the exception of Example 55 (comparative), in which ten grams of DAP were buried in the growth media at around 3 cm depth as a comparative example.

[2] = Examples 41, 49-54 (tannic acid layers)

## O=C(O)Cc1cccc2ccccc12 [1-Naphthalene acetoate, 1-Naphthalene Acetic Acid]
[1]
  pKa: 4.23

## O=C(O)COc1ccc(Cl)cc1 [4-Chlorophenyloxy acetoate, 4-Chlorophenoxyacetic Acid]
[1]
  pKa: 3.58

## N.N.O=P(O)(O)O [DAP, Diammonium phosphate]
Brassica integrifolia; Examples 55-64 (DAP core)
  Height: 7.60 cm
  Leaf length: 4.20 cm
  Leaf width: 2.40 cm
  Total yield: 15 gram
  Weight of 6 plants: 9 gram

## NC(N)=O [Urea, urea]
Brassica integrifolia; [2]
  Height: 4.90 cm
  Leaf length: 2.00 cm
  Leaf width: 1.00 cm
  Total yield: 5 gram
  Weight of 6 plants: 5 gram
Brassica integrifolia; Examples 41-48
  Height: 4.90 cm
  Leaf length: 2.00 cm
  Leaf width: 1.00 cm
  Total yield: 5 gram
  Weight of 6 plants: 5 gram
